Assay [1] is filed under the species Homo sapiens. As to the kind of experiment: Selectivity index, ratio of inhibition for PI3Kalpha (unknown origin) to inhibition for PI3K p120 gamma (unknown origin) using phosphatidylinositol 4,5-bisphosphate as substrate in presence of ATP incubated for 60 mins by ADP-Glo assay. A general note: ADP-Glo turns the ADP formed in a reaction into a luminescent signal.

Assay [2] deals with T1, Phosphatidylinositol 4,5-bisphosphate 3-kinase catalytic subunit gamma isoform (Homo sapiens, UniProt P48736). As to the kind of experiment: Inhibition of PI3K p120gamma (unknown origin) using phosphatidylinositol 4,5-bisphosphate as substrate in presence of ATP incubated for 60 mins by ADP-Glo assay.
The target in assay [3] is T1, Phosphatidylinositol 4,5-bisphosphate 3-kinase catalytic subunit gamma isoform. As to the kind of experiment: Inhibition of PI3Kgamma in human THP-1 cells assessed as reduction in Akt phosphorylation at S473 residue incubated for 60 mins measured after 120 mins by alphalisa assay. The assay is classed as cell-based.
The species named for assay [4] is Homo sapiens. The assay can be described thus: Selectivity index, ratio of inhibition for PI3Kdelta (unknown origin) to inhibition for PI3K p120 gamma (unknown origin) using phosphatidylinositol 4,5-bisphosphate as substrate in presence of ATP incubated for 60 mins by ADP-Glo assay.

Results on 41 compounds are retold here after ChEMBL document CHEMBL4725475, “Discovery of Potent and Selective 7-Azaindole Isoindolinone-Based PI3Kγ Inhibitors” (ACS Med Chem Lett, 2020).

T1 sequence (P48736 whole entry, canonical isoform): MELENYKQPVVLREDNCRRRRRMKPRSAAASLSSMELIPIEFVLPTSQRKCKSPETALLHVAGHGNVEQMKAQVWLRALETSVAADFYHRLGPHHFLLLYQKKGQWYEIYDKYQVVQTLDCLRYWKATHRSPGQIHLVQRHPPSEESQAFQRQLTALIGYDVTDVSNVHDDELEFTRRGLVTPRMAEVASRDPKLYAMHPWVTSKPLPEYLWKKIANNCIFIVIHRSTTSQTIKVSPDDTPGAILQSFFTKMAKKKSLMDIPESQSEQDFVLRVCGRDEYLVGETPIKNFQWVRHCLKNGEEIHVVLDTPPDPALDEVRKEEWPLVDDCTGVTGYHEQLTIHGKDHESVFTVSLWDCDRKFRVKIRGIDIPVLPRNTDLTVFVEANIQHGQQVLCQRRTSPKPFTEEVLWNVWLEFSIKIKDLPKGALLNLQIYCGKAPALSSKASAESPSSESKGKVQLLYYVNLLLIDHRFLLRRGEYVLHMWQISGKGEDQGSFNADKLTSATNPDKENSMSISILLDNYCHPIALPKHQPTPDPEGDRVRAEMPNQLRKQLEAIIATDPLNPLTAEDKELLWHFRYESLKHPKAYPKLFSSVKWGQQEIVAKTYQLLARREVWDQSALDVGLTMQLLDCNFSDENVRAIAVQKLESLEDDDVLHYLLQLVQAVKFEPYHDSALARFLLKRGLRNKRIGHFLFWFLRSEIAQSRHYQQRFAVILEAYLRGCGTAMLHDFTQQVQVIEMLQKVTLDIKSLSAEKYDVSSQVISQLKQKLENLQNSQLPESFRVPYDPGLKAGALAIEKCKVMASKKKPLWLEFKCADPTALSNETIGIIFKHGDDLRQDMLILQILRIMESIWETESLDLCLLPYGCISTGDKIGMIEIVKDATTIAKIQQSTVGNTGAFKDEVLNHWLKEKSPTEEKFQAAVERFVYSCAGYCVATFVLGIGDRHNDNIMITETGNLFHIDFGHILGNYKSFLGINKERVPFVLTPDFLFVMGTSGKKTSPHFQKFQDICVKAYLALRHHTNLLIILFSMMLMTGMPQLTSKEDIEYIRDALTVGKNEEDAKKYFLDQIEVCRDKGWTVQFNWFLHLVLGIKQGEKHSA

Take `CC(=O)Nc1cc(-c2cnc3[nH]cc(-c4cnn(C)c4)c3c2)cc2c1C(=O)N([C@@H](C)C1CC1)C2`: the Selectivity ratio in the assay filed under Homo sapiens [1] was > 1060; in the assay listed under Homo sapiens [4], > 2740. The IC50 (usually the point on the concentration scale where inhibition reaches its midpoint) turned out to be 2.5 nM in assay [2] and 500 nM in assay [3].
Regarding `Cc1cc(-c2cnc3[nH]ncc3n2)cc2c1C(=O)N([C@@H](C)C1CC1)C2`, in assay [2], the IC50 came out at 80 nM.
Regarding `Cc1cc(-c2cnc3[nH]cc(C4CCNC4)c3c2)cc2c1C(=O)N([C@@H](C)C1CC1)C2` (some centres undefined), the Selectivity ratio in the assay filed under Homo sapiens [1] and in the assay listed under Homo sapiens [4] was > 36 each time. In addition, the half-inhibitory concentration (IC50) was found to be 281 nM in assay [2] and 3800 nM in assay [3].
With `Cc1cc(-c2cnc3[nH]nc(-c4ccncc4)c3c2)cc2c1C(=O)N([C@@H](C)C1CC1)C2`, in assay [2], the IC50 came out at 8 nM.
Consider `Cc1cc(-c2cnc3[nH]cc(-c4ccc(C#N)cc4)c3c2)cc2c1C(=O)N([C@@H](C)C1CC1)C2`, for which the Selectivity ratio in the assay filed under Homo sapiens [1] and in the assay filed under Homo sapiens [4] was > 242 throughout. Further, the results for the IC50 in assay [2] and in assay [3] were 42 nM and 3500 nM, respectively.
As for `Cc1cc(-c2cnc3[nH]ncc3c2)cc2c1C(=O)N([C@@H](C)C1CC1)C2`, the IC50 in assay [2] worked out at 35 nM.
For `Cc1ccc(-c2c[nH]c3ncc(-c4cc(C)c5c(c4)CN([C@@H](C)C4CC4)C5=O)cc23)cc1C(=O)O`, the Selectivity ratio in the assay listed under Homo sapiens [1] is > 1560; in the assay listed under Homo sapiens [4], > 1900. In addition, the results for the IC50 in assay [2] and in assay [3] were 5 nM and 260 nM, respectively.
The like results for `Cc1cc(-c2cnc3[nH]cc(-c4ccncc4)c3c2)cc2c1C(=O)N(C(C1CC1)C1CC1)C2` were, in that order, 253, 901, 6.8 nM and 800 nM.
As to `Cc1cc(-c2cnc3[nH]cc(C(=O)O)c3c2)cc2c1C(=O)N([C@@H](C)C1CC1)C2`, the Selectivity ratio in the assay listed under Homo sapiens [1] and in the assay listed under Homo sapiens [4] was > 775 throughout. The results for the IC50 in assay [2] and in assay [3] were 13 nM and 11000 nM, respectively.
Take `Cc1cc(-c2cnc3[nH]cc(-c4ccncc4)c3c2)cc2c1C(=O)N([C@H](C)C1CC1)C2`: the IC50 in assay [2] is 9 nM.
Take `Cc1cc(-c2cnc3[nH]cc(C(=O)Nc4ccncc4)c3c2)cc2c1C(=O)N([C@@H](C)C1CC1)C2`: the Selectivity ratio in the assay listed under Homo sapiens [1] and in the assay listed under Homo sapiens [4] was > 856 each time. In addition, the IC50 was 12 nM in assay [2] and 1300 nM in assay [3].
Take `C[C@@H](C1CC1)N1Cc2cc(-c3cnc4[nH]cc(-c5cnn(C)c5)c4c3)cc(S(=O)(=O)N(C)C)c2C1=O`: the Selectivity ratio in the assay filed under Homo sapiens [1] came to 254; in the assay listed under Homo sapiens [4], 159. The IC50 worked out at 2.6 nM in assay [2] and 100 nM in assay [3].
For the compound `C[C@@H](C1CC1)N1Cc2cc(-c3cnc4[nH]cc(-c5cnn(C)c5)c4c3)cc(C(F)(F)F)c2C1=O`, the Selectivity ratio in the assay listed under Homo sapiens [1] is 2800; in the assay filed under Homo sapiens [4], 266. For the same compound, the IC50 in assay [2] was 2.4 nM; in assay [3] it was 90 nM.
The like results for `Cc1cc(-c2cnc3[nH]cc(-c4ccc(S(N)(=O)=O)cc4)c3c2)cc2c1C(=O)N([C@@H](C)C1CC1)C2` were, in that order, 1060, 463, 5 nM and 400 nM.
Turning to `Cc1cc(-c2cnc3[nH]cc(-c4ccc(C(=O)O)c(C(C)C)c4)c3c2)cc2c1C(=O)N([C@@H](C)C1CC1)C2`, the Selectivity ratio in the assay filed under Homo sapiens [1] worked out at 224; in the assay filed under Homo sapiens [4] it was 344. Moreover, the results for the IC50 in assay [2] and in assay [3] were 2.1 nM and 59 nM, respectively.
Consider `Cc1cc(-c2cnc3[nH]c(=O)ccc3c2)cc2c1C(=O)N(C(C)C1CC1)C2` (racemic), for which, in assay [2], the IC50 was 530 nM.
As to `Cc1cc(-c2cnc3[nH]cc(-c4ccc(C(C)(C)O)nc4)c3c2)cc2c1C(=O)N([C@@H](C)C1CC1)C2`, the Selectivity ratio in the assay filed under Homo sapiens [1] is 416; in the assay listed under Homo sapiens [4], 183. Moreover, the IC50 in assay [2] was 3.3 nM; in assay [3], 600 nM.
In the case of `Cc1cc(-c2cnc3[nH]cc(-c4ccn(C)c(=O)c4)c3c2)cc2c1C(=O)N([C@@H](C)C1CC1)C2`, the Selectivity ratio stood at 466 in the assay listed under Homo sapiens [1] and 128 in the assay listed under Homo sapiens [4]. In addition, the IC50 was determined as 26 nM in assay [2] and 200 nM in assay [3].
The like results for `Cc1cc(-c2cnc3[nH]cc(-c4ccncc4)c3c2)cc2c1C(=O)N(C1CCOCC1)C2` were, in that order, 7, 18, 50 nM and 1000 nM.
Take `Cc1cc(-c2cnc3[nH]cc(-c4ccc(C(=O)O)c(N5CCCC5)c4)c3c2)cc2c1C(=O)N([C@@H](C)C1CC1)C2`: the Selectivity ratio in the assay filed under Homo sapiens [1] was found to be 853; in the assay listed under Homo sapiens [4], 49. In addition, the IC50 in assay [2] was 4 nM; in assay [3] it was 170 nM.
The like results for `Cc1cc(-c2cnc3[nH]cc(-c4ccncc4)c3c2)cc2c1C(=O)N(C(C)(C)C1CC1)C2` were, in that order, 74, 100, 28 nM and 1100 nM.
The corresponding values for `Cc1cc(-c2cnc3[nH]cc(-c4cnn(C)c4)c3c2)cc2c1C(=O)N([C@@H](C)C1CC1)C2` are 898, 379, 3.26 nM and 200 nM.
The like results for `Cc1cc(-c2cnc3[nH]cc(-c4ccc(C(N)=O)cc4)c3c2)cc2c1C(=O)N([C@@H](C)C1CC1)C2` were, in that order, 711, 226, 2.59 nM and 230 nM.
`C[C@@H](C1CC1)N1Cc2cc(-c3cnc4[nH]cc(-c5cnn(C)c5)c4c3)cc(Cl)c2C1=O`: the figures for the Selectivity ratio in the assay filed under Homo sapiens [1] and in the assay listed under Homo sapiens [4] were 455 and 533, respectively. The values for the concentration for half-maximal inhibition (IC50) in assay [2] and in assay [3] were 2.4 nM and 170 nM, respectively.
In the case of `C[C@@H](C1CC1)N1Cc2cc(-c3cnc4[nH]cc(-c5cnn(C)c5)c4c3)cc(S(C)(=O)=O)c2C1=O`, the Selectivity ratio in the assay filed under Homo sapiens [1] worked out at 1020; in the assay filed under Homo sapiens [4], 289. Moreover, the IC50 is 1.5 nM in assay [2] and 50 nM in assay [3].
With `Cc1cc(-c2cnc3[nH]cc(-c4ccncc4)c3c2)cc2c1C(=O)N(C(C)(C)C)C2`, the Selectivity ratio was determined as 62 in the assay filed under Homo sapiens [1] and 107 in the assay listed under Homo sapiens [4]. The results for the IC50 in assay [2] and in assay [3] were 26 nM and 720 nM, respectively.
For the compound `COc1cc(-c2cnc3[nH]cc(-c4cnn(C)c4)c3c2)cc2c1C(=O)N([C@@H](C)C1CC1)C2`, the Selectivity ratio in the assay filed under Homo sapiens [1] is > 1670; in the assay listed under Homo sapiens [4], 365. Moreover, the IC50 in assay [2] came to 4.3 nM; in assay [3], 170 nM.
The corresponding values for `CC(C)c1cc(-c2cnc3[nH]cc(-c4cnn(C)c4)c3c2)cc2c1C(=O)N([C@@H](C)C1CC1)C2` are 898, 1380, 4.2 nM and 300 nM.
With `Cc1cc(-c2cnc3c(c2)CC(=O)N3)cc2c1C(=O)N(C(C)C1CC1)C2` (racemic), the concentration for half-maximal inhibition (IC50) in assay [2] worked out at 600 nM.
Consider `Cc1cc(-c2cnc3[nH]cc(-c4ccc(C(=O)O)c(F)c4)c3c2)cc2c1C(=O)N([C@@H](C)C1CC1)C2`, for which the values for the Selectivity ratio in the assay listed under Homo sapiens [1] and in the assay filed under Homo sapiens [4] were 546 and 1050, respectively. In addition, the concentration for half-maximal inhibition (IC50) was 3.1 nM in assay [2] and 700 nM in assay [3].
The like results for `Cc1cc(-c2cnc3[nH]cc(-c4ccccn4)c3c2)cc2c1C(=O)N([C@@H](C)C1CC1)C2` were, in that order, > 308, > 308, 33 nM and 3500 nM.
The like results for `Cc1cc(-c2cnc3[nH]cc(-c4cccnc4)c3c2)cc2c1C(=O)N(C(C)C1CC1)C2` (racemic) were, in that order, 89, 112, 7 nM and 400 nM.
In the case of `Cc1cc(-c2cnc3[nH]cc(-c4ccc(C(=O)O)c(C5CC5)c4)c3c2)cc2c1C(=O)N([C@@H](C)C1CC1)C2`, the values for the Selectivity ratio in the assay filed under Homo sapiens [1] and in the assay filed under Homo sapiens [4] were 585 and 494, respectively. The IC50 was found to be 1.6 nM in assay [2] and 40 nM in assay [3].
Consider `Cc1cc(-c2cnc3[nH]cc(-c4ccnc(C(F)(F)F)c4)c3c2)cc2c1C(=O)N([C@@H](C)C1CC1)C2`, for which the Selectivity ratio in the assay filed under Homo sapiens [1] was > 578; in the assay filed under Homo sapiens [4], > 552. The values for the IC50 in assay [2] and in assay [3] were 16 nM and 4000 nM, respectively.
In the case of `CNC(=O)c1cc(-c2cnc3[nH]cc(-c4cnn(C)c4)c3c2)cc2c1C(=O)N([C@@H](C)C1CC1)C2`, the Selectivity ratio is 1050 in the assay filed under Homo sapiens [1] and > 1180 in the assay filed under Homo sapiens [4]. In addition, the IC50 in assay [2] came out at 7.9 nM; in assay [3], 730 nM.
The like results for `Cc1cc(-c2cnc3[nH]cc(-c4ccncc4)c3c2)cc2c1C(=O)N(CC(F)(F)F)C2` were, in that order, 42, 62, 25.3 nM and 1600 nM.
For `Cc1cc(-c2cnc3[nH]ncc3c2)cc2c1C(=O)N(C(C)C1CC1)C2` (racemic), in assay [2], the half-maximal inhibitory concentration (IC50) amounted to 90 nM.
For `Cc1cc(-c2cnc3[nH]cc(-c4cc(C)c(C(=O)O)c(C5CC5)c4)c3c2)cc2c1C(=O)N([C@@H](C)C1CC1)C2`, the Selectivity ratio was 691 in the assay listed under Homo sapiens [1] and 367 in the assay listed under Homo sapiens [4]. For the same compound, the figures for the IC50 in assay [2] and in assay [3] were 1.2 nM and 70 nM, respectively.
As to `Cc1cc(-c2cnc3cn[nH]c3c2)cc2c1C(=O)N(C(C)C1CC1)C2` (racemic), in assay [2], the IC50 was 490 nM.
The same measure, in the same setting: to `Cc1cc(-c2cnc3[nH]nnc3c2)cc2c1C(=O)N(C(C)C1CC1)C2` (racemic) belongs 1600 nM; to `Cc1cc(-c2cnc3[nH]ccc3c2)cc2c1C(=O)N([C@@H](C)C1CC1)C2`, 50 nM.
